Source: ChEMBL document CHEMBL4507303, “Data for DCP probe TP-004” (2021)
Calls of active or inactive are those of the source. The rule behind the calls is not given here.

Legend:
[1] = target: Methionine aminopeptidase 2 (Homo sapiens, UniProt P50579); assay: Biochemical activity-MetAP2 using Co
[2] = test system: Tyrosine-protein kinase ABL1 (Homo sapiens), P00519 [Q252H]; conditions: Compound concentration 1000.0 nM
[3] = target: Activin receptor type-1 (Homo sapiens) (UniProt Q04771); conditions: Compound concentration 1000.0 nM
[4] = target: Bone morphogenetic protein receptor type-1A (Homo sapiens) (UniProt P36894); conditions: Compound concentration 1000.0 nM
[5] = target: Calcium/calmodulin-dependent protein kinase type 1 (Homo sapiens) (UniProt Q14012); conditions: Compound concentration 1000.0 nM
[6] = target: Calcium/calmodulin-dependent protein kinase type II subunit alpha (Homo sapiens) (UniProt Q9UQM7); conditions: Compound concentration 1000.0 nM
[7] = target: Serine/threonine-protein kinase Chk2 (Homo sapiens) (UniProt O96017); conditions: Compound concentration 1000.0 nM
[8] = target: Dual specificity protein kinase CLK1 (Homo sapiens) (UniProt P49759); conditions: Compound concentration 1000.0 nM
[9] = target: Casein kinase I isoform alpha (Homo sapiens) (UniProt P48729); conditions: Compound concentration 1000.0 nM
[10] = target: Serine/threonine-protein kinase DCLK2 (Homo sapiens) (UniProt Q8N568); conditions: Compound concentration 1000.0 nM
[11] = target: Serine/threonine-protein kinase 17A (Homo sapiens) (UniProt Q9UEE5); conditions: Compound concentration 1000.0 nM
[12] = target: Serine/threonine-protein kinase 17B (Homo sapiens) (UniProt O94768); conditions: Compound concentration 1000.0 nM
[13] = target: Dual specificity tyrosine-phosphorylation-regulated kinase 1A (Homo sapiens) (UniProt Q13627); conditions: Compound concentration 1000.0 nM
[14] = target: Ephrin type-A receptor 7 (Homo sapiens) (UniProt Q15375); conditions: Compound concentration 1000.0 nM
[15] = target: Tyrosine-protein kinase Fgr (Homo sapiens) (UniProt P09769); conditions: Compound concentration 1000.0 nM
[16] = target: Receptor-type tyrosine-protein kinase FLT3 (Homo sapiens) (UniProt P36888); conditions: Compound concentration 1000.0 nM
[17] = test system: Receptor-type tyrosine-protein kinase FLT3 (Homo sapiens), P36888 [D835V]; conditions: Compound concentration 1000.0 nM
[18] = target: Mitogen-activated protein kinase 9 (Homo sapiens) (UniProt P45984); conditions: Compound concentration 1000.0 nM
[19] = test system: Mast/stem cell growth factor receptor Kit (Homo sapiens), P10721 [L576P]; conditions: Compound concentration 1000.0 nM
[20] = target: Dual specificity mitogen-activated protein kinase kinase 2 (Homo sapiens) (UniProt P36507); conditions: Compound concentration 1000.0 nM
[21] = target: Dual specificity mitogen-activated protein kinase kinase 3 (Homo sapiens) (UniProt P46734); conditions: Compound concentration 1000.0 nM
[22] = test system: Hepatocyte growth factor receptor (Homo sapiens), P08581 [Y1235D]; conditions: Compound concentration 1000.0 nM
[23] = target: Serine/threonine-protein kinase Nek11 (Homo sapiens) (UniProt Q8NG66); conditions: Compound concentration 1000.0 nM
[24] = target: Serine/threonine-protein kinase OSR1 (Homo sapiens) (UniProt O95747); conditions: Compound concentration 1000.0 nM
[25] = target: Mitogen-activated protein kinase 11 (Homo sapiens) (UniProt Q15759); conditions: Compound concentration 1000.0 nM
[26] = target: Mitogen-activated protein kinase 13 (Homo sapiens) (UniProt O15264); conditions: Compound concentration 1000.0 nM
[27] = target: Phosphatidylinositol 5-phosphate 4-kinase type-2 beta (Homo sapiens) (UniProt P78356); conditions: Compound concentration 1000.0 nM
[28] = target: Ribosomal protein S6 kinase alpha-1 (Homo sapiens) (UniProt Q15418); conditions: Compound concentration 1000.0 nM
[29] = target: Ribosomal protein S6 kinase alpha-3 (Homo sapiens) (UniProt P51812); conditions: Compound concentration 1000.0 nM
[30] = target: Serine/threonine-protein kinase Sgk1 (Homo sapiens) (UniProt O00141); conditions: Compound concentration 1000.0 nM
[31] = target: Serine/threonine-protein kinase SIK1 (Homo sapiens) (UniProt P57059); conditions: Compound concentration 1000.0 nM
[32] = target: SNF-related serine/threonine-protein kinase (Homo sapiens) (UniProt Q9NRH2); conditions: Compound concentration 1000.0 nM
[33] = target: Tyrosine-protein kinase Tec (Homo sapiens) (UniProt P42680); conditions: Compound concentration 1000.0 nM
[34] = target: Wee1-like protein kinase (Homo sapiens) (UniProt P30291); conditions: Compound concentration 1000.0 nM
[35] = target: Serine/threonine-protein kinase WNK1 (Homo sapiens) (UniProt Q9H4A3); conditions: Compound concentration 1000.0 nM
[36] = target: Serine/threonine-protein kinase WNK4 (Homo sapiens) (UniProt Q96J92); conditions: Compound concentration 1000.0 nM
[37] = target: Mitogen-activated protein kinase kinase kinase 19 (Homo sapiens) (UniProt Q56UN5); conditions: Compound concentration 1000.0 nM
[38] = target: 5-hydroxytryptamine receptor 1B (Homo sapiens) (UniProt P28222); conditions: Compound concentration 10.0 uM
[39] = target: 5-hydroxytryptamine receptor 1D (Homo sapiens) (UniProt P28221); conditions: Compound concentration 10.0 uM
[40] = target: 5-hydroxytryptamine receptor 2B (Homo sapiens) (UniProt P41595); conditions: Compound concentration 10.0 uM
[41] = target: 5-hydroxytryptamine receptor 2C (Homo sapiens) (UniProt P28335); conditions: Compound concentration 10.0 uM
[42] = target: 5-hydroxytryptamine receptor 3A (Homo sapiens) (UniProt P46098); conditions: Compound concentration 10.0 uM
[43] = target: Sodium-dependent serotonin transporter (Homo sapiens) (UniProt P31645); conditions: Compound concentration 10.0 uM
[44] = target: GABA-A receptor; anion channel (Rattus norvegicus) (UniProt O09028+P15431+P18506+P18508+P19969+P20236+P23574+P23576+P28471+P28473+P30191+P62813+P63079+P63138+Q91ZM7+Q9ES14); conditions: Compound concentration 10.0 uM

Chain of Wee1-like protein kinase (Homo sapiens) (P30291 whole entry, looked up): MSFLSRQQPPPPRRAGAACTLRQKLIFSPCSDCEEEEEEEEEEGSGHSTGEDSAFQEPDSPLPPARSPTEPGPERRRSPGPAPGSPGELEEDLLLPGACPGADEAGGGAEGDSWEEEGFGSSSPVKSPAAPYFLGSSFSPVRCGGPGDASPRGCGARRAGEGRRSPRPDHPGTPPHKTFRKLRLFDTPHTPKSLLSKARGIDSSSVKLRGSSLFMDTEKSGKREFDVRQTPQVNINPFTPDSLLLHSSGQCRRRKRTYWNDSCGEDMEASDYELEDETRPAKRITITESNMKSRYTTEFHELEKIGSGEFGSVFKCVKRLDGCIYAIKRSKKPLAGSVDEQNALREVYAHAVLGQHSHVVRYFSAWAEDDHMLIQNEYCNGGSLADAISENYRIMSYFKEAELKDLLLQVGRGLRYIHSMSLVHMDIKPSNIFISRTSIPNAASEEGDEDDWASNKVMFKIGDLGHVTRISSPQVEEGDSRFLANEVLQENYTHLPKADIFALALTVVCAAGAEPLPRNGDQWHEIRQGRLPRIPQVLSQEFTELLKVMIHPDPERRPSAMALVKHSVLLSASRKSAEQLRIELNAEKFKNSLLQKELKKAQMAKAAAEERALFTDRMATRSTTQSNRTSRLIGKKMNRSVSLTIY
Chain of Serine/threonine-protein kinase WNK4 (Homo sapiens) (Q96J92 whole entry): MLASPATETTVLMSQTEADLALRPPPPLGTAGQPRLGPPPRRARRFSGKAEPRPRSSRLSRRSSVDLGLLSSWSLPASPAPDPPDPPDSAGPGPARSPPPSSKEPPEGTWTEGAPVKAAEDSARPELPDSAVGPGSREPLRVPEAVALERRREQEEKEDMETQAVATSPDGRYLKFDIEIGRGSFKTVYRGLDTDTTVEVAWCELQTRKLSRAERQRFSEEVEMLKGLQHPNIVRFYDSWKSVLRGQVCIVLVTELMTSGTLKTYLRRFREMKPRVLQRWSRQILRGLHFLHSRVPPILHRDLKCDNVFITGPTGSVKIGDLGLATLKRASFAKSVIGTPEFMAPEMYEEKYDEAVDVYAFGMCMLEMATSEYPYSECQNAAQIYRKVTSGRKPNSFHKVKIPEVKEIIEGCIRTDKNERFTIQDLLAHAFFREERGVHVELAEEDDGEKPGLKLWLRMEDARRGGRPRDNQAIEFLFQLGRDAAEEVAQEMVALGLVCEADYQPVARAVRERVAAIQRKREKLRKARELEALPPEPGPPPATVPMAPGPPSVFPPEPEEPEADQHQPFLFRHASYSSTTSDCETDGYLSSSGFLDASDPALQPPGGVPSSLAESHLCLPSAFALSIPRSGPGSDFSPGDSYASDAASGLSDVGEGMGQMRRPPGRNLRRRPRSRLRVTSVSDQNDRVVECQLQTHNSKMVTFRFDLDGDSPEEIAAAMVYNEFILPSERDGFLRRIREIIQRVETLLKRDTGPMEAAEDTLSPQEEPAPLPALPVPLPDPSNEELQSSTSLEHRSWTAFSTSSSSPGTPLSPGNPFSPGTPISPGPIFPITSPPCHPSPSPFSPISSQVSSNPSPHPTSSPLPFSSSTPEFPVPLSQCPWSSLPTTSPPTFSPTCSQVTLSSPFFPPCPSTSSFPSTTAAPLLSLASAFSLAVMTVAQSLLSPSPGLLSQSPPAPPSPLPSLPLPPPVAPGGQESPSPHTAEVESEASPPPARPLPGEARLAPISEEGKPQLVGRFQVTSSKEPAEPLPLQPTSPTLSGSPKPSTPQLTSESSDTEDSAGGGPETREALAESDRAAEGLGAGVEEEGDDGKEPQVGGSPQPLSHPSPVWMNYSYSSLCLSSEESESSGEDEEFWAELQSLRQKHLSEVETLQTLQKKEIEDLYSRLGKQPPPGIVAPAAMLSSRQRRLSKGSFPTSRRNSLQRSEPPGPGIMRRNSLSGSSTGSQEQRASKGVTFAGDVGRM
Chain of Serine/threonine-protein kinase DCLK2 (Homo sapiens) (Q8N568 whole entry): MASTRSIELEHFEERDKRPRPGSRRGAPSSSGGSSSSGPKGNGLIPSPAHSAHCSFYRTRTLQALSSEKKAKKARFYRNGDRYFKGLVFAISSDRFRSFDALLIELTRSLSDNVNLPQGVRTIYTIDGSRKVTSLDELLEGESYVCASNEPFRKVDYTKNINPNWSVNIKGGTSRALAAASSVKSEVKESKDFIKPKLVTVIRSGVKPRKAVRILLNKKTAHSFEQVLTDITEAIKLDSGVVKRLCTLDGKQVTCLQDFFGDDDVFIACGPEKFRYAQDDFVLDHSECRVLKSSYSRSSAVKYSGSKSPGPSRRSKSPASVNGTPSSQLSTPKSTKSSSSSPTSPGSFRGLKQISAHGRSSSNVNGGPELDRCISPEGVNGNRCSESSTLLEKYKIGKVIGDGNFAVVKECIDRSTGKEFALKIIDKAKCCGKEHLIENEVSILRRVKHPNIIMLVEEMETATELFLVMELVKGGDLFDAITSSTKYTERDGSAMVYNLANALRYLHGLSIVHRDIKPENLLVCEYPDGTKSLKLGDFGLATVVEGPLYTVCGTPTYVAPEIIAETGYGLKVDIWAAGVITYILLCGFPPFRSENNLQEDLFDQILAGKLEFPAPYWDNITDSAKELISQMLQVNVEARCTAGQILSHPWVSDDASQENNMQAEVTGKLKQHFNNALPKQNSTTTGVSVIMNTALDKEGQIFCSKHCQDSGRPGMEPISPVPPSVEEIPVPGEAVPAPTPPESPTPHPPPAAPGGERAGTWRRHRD
Chain of Serine/threonine-protein kinase Chk2 (Homo sapiens) (O96017 whole entry): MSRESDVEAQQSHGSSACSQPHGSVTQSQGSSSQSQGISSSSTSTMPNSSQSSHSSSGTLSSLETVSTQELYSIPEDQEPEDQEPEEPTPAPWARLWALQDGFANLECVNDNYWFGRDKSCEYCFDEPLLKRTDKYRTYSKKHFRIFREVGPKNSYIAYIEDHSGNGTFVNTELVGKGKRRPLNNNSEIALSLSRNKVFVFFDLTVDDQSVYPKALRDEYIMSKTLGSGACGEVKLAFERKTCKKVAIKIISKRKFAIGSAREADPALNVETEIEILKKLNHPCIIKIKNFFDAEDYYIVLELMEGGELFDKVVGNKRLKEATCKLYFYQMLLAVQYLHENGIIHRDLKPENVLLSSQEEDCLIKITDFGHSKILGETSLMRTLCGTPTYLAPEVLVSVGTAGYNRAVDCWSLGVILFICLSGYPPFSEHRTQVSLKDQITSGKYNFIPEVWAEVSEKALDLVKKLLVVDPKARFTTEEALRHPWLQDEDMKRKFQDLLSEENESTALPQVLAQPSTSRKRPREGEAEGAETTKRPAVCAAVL
Chain of Phosphatidylinositol 5-phosphate 4-kinase type-2 beta (Homo sapiens) (P78356 whole entry): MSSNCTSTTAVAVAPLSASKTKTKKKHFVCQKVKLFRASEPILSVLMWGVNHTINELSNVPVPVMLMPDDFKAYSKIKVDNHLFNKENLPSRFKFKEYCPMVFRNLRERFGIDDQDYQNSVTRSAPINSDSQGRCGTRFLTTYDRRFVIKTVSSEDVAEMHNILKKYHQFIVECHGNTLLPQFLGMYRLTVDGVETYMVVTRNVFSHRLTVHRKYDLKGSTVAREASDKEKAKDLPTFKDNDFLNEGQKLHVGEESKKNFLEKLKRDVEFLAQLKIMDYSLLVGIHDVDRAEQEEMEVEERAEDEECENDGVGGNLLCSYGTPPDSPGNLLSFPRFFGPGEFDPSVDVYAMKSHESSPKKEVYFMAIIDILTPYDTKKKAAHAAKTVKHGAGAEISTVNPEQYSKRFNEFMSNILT
Chain of SNF-related serine/threonine-protein kinase (Homo sapiens) (Q9NRH2 whole entry): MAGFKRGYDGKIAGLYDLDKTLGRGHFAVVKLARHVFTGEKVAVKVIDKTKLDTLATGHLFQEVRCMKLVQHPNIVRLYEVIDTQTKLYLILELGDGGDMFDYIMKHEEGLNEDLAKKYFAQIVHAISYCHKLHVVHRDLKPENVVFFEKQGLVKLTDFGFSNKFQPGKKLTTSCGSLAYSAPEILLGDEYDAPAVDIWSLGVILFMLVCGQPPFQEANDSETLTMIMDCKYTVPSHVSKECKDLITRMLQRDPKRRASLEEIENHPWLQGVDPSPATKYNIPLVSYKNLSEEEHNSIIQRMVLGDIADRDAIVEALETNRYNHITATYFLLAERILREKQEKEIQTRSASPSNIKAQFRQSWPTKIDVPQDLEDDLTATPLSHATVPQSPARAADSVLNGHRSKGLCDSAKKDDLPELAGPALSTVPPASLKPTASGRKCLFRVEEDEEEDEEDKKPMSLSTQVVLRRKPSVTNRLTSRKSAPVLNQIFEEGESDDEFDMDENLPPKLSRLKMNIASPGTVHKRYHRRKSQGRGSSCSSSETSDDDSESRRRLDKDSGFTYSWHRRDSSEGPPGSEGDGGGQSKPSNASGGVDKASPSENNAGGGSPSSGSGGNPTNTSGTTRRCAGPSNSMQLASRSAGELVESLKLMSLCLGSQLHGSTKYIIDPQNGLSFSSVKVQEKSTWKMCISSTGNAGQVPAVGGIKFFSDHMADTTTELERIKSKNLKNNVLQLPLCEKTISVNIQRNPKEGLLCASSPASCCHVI
Chain of Activin receptor type-1 (Homo sapiens) (Q04771 whole entry): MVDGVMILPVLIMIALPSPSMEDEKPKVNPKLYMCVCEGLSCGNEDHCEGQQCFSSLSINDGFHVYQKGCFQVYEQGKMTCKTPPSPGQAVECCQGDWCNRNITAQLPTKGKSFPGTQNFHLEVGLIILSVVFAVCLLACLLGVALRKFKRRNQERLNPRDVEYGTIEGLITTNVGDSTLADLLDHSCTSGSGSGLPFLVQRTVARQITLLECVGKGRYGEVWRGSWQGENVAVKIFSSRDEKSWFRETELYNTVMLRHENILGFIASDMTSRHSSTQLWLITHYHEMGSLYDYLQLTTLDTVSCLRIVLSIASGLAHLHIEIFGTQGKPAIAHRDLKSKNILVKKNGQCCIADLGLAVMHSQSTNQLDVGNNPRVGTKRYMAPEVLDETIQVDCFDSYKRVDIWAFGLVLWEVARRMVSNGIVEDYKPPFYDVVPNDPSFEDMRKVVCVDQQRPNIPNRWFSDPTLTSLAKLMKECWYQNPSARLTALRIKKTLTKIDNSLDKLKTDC

In the case of `Cc1nc(N2CC[C@@H](O)C2)ncc1-c1cc(C(F)(F)F)cc2[nH]ncc12` [TP-004], the IC50 [1] is reported as 31 nM (active), the residual activity [2] is reported as 79% and the residual activity [3] is reported as 80%. It also gave a residual activity [4] of 100%, a residual activity [5] of 100% and a residual activity [6] of 100%. The residual activity [7] was 96%, the residual activity [8] was 87% and the residual activity [9] was 96%. For the same compound, the residual activity [10] was 100%, the residual activity [11] was 100% and the residual activity [12] was 99%. For the same compound, the residual activity [13] was 73%, the residual activity [14] was 63% and the residual activity [15] was 100%. The residual activity [16] was 67%, the residual activity [17] was 58% and the residual activity [18] was 61%. For the same compound, the residual activity [19] was 69%, the residual activity [20] was 74% and the residual activity [21] was 90%. For the same compound, the residual activity [22] was 81%, the residual activity [23] was 87% and the residual activity [24] was 67%. It also gave a residual activity [25] of 100%, a residual activity [26] of 100% and a residual activity [27] of 100%. For the same compound, the residual activity [28] was 91%, the residual activity [29] was 48% and the residual activity [30] was 49%. For the same compound, the residual activity [31] was 90%, the residual activity [32] was 96% and the residual activity [33] was 84%. The residual activity [34] was 73%, the residual activity [35] was 71% and the residual activity [36] was 95%. For the same compound, the residual activity [37] was 67%, the inhibition [38] was 22.3% and the inhibition [39] was -8.55%. For the same compound, the inhibition [40] was -1.83%, the inhibition [41] was -0.722% and the inhibition [42] was 6.06%. The inhibition [43] was -6.93% and the inhibition [44] was 54.3%.
